Reference: ChEMBL document CHEMBL1143641, “Structure-based design of 7-carbamate analogs of geldanamycin” (Bioorg Med Chem Lett, 2005)

Assays:
[1] = target: Heat shock protein HSP 90-alpha (Homo sapiens, UniProt P07900); assay: Binding affinity for human heat shock protein 90 in scintillation proximity assay
SK-BR-3 = assay: Cytotoxicity against SKBr3 cells; format: functional, cell-based; conditions: Homo sapiens

SMILES	Kd [1] [nM]	IC50 (SK-BR-3) [nM]
CO[C@H]1/C=C\C=C(/C)C(=O)NC2=CC(=O)C(NCCF)=C(C[C@@H](C)C[C@H](OC)[C@H](O)[C@@H](C)/C=C(\C)[C@@H]1OC(=O)NO)C2=O	> 100000	1500
CO[C@H]1/C=C\C=C(/C)C(=O)NC2=CC(=O)C(N3CCC3)=C(C[C@@H](C)C[C@H](OC)[C@H](O)[C@@H](C)/C=C(\C)[C@@H]1OC(=O)NO)C2=O	> 100000	640
CO[C@H]1/C=C\C=C(/C)C(=O)NC2=CC(=O)C(NCCN(C)C)=C(C[C@@H](C)C[C@H](OC)[C@H](O)[C@@H](C)/C=C(\C)[C@@H]1OC(=O)N(C)N)C2=O	> 100000	2500
CO[C@H]1/C=C\C=C(/C)C(=O)NC2=CC(=O)C(NCCN(C)C)=C(C[C@@H](C)C[C@H](OC)[C@H](O)[C@@H](C)/C=C(\C)[C@@H]1OC(=O)NO)C2=O	18000	220
CO[C@H]1/C=C\C=C(/C)C(=O)NC2=CC(=O)C(NCCN(C)C)=C(C[C@@H](C)C[C@H](OC)[C@H](O)[C@@H](C)/C=C(\C)[C@@H]1OC(=O)NCCN(C)C)C2=O	> 100000	460
CNC(=O)O[C@H]1/C(C)=C/[C@H](C)[C@@H](O)[C@@H](OC)C[C@H](C)CC2=C(NCCN(C)C)C(=O)C=C(NC(=O)/C(C)=C/C=C\[C@@H]1OC)C2=O	> 100000	420
CO[C@H]1/C=C\C=C(/C)C(=O)NC2=CC(=O)C(NCCN(C)C)=C(C[C@@H](C)C[C@H](OC)[C@H](O)[C@@H](C)/C=C(\C)[C@@H]1OC(=O)NCCO)C2=O	> 100000	390
CO[C@H]1/C=C\C=C(/C)C(=O)NC2=CC(=O)C(N)=C(C[C@@H](C)C[C@H](OC)[C@H](O)[C@@H](C)/C=C(\C)[C@@H]1OC(=O)c1ccc[nH]1)C2=O	> 100000	1900
CO[C@H]1/C=C\C=C(/C)C(=O)NC2=CC(=O)C(NCCF)=C(C[C@@H](C)C[C@H](OC)[C@H](O)[C@@H](C)/C=C(\C)[C@@H]1OC(N)=O)C2=O	800	
CO[C@H]1/C=C\C=C(/C)C(=O)NC2=CC(=O)C(N3CCC3)=C(C[C@@H](C)C[C@H](OC)[C@H](O)[C@@H](C)/C=C(\C)[C@@H]1OC(N)=O)C2=O	1400	
CO[C@H]1C[C@H](C)CC2=C(NCCN(C)C)C(=O)C=C(NC(=O)/C(C)=C/C=C3/NC(=O)O[C@@H](/C(C)=C/[C@H](C)[C@H]1O)[C@H]3OC)C2=O	> 100000	4500
CO[C@H]1/C=C\C=C(/C)C(=O)NC2=CC(=O)C(NCCN(C)C)=C(C[C@@H](C)C[C@H](OC)[C@H](O)[C@@H](C)/C=C(\C)[C@@H]1OC(=O)c1ccc[nH]1)C2=O	> 100000	410
CO[C@H]1/C=C\C=C(/C)C(=O)NC2=CC(=O)C(NCCN(C)C)=C(C[C@@H](C)C[C@H](OC)[C@H](O)[C@@H](C)/C=C(\C)[C@@H]1OC(=O)c1c[nH]cn1)C2=O	> 100000	1200
CO[C@H]1/C=C\C=C(/C)C(=O)NC2=CC(=O)C(N3CCC3)=C(C[C@@H](C)C[C@H](OC)[C@H](O)[C@@H](C)/C=C(\C)[C@@H]1OC(=O)NN)C2=O	> 100000	530
CO[C@H]1/C=C\C=C(/C)C(=O)NC2=CC(=O)C(NCCF)=C(C[C@@H](C)C[C@H](OC)[C@H](O)[C@@H](C)/C=C(\C)[C@@H]1OC(=O)NN)C2=O	> 100000	2100
CO[C@H]1/C=C\C=C(/C)C(=O)NC2=CC(=O)C(NCCN(C)C)=C(C[C@@H](C)C[C@H](OC)[C@H](O)[C@@H](C)/C=C(\C)[C@@H]1OC(=O)NCC(N)=O)C2=O	> 100000	1400
CO[C@H]1/C=C\C=C(/C)C(=O)NC2=CC(=O)C(NCCN(C)C)=C(C[C@@H](C)C[C@H](OC)[C@H](O)[C@@H](C)/C=C(\C)[C@@H]1OC(=O)NN)C2=O	> 100000	140
CO[C@H]1/C=C\C=C(/C)C(=O)NC2=CC(=O)C(N)=C(C[C@@H](C)C[C@H](OC)[C@H](O)[C@@H](C)/C=C(\C)[C@@H]1OC(N)=O)C2=O	100	
CONC(=O)O[C@H]1/C(C)=C/[C@H](C)[C@@H](O)[C@@H](OC)C[C@H](C)CC2=C(NCCN(C)C)C(=O)C=C(NC(=O)/C(C)=C/C=C\[C@@H]1OC)C2=O	> 100000	490
